# Measurements reported in ChEMBL document CHEMBL4219183, “Novel purine benzimidazoles as antimicrobial agents by regulating ROS generation and targeting clinically resistant Staphylococcus aureus DNA groove” (Bioorg Med Chem Lett, 2018).
# Test system: Escherichia coli
# Test: Antibacterial activity against Escherichia coli after 24 hrs by two fold serial dilution method
# Assay type: functional
# Conditions: not given
row,Compound,MIC
1,Clc1cccc(Cn2c(Cn3cnc4c(N5CCOCC5)ncnc43)nc3ccccc32)c1,256 µg/mL
2,Cc1nc2cc([N+](=O)[O-])ccc2n1CCn1cnc2c(N3CCOCC3)ncnc21,128 µg/mL
3,c1nc(N2CCOCC2)c2nc[nH]c2n1,256 µg/mL
4,CCCCCCn1c(Cn2cnc3c(N4CCCC4)ncnc32)nc2ccccc21,256 µg/mL
5,CC(=O)c1nc2ccccc2n1CCn1cnc2c(N3CCOCC3)ncnc21,128 µg/mL
6,c1ccc2c(c1)ncn2CCn1cnc2c(N3CCOCC3)ncnc21,256 µg/mL

# Test system: Candida tropicalis
# Test: Antifungal activity against Candida tropicalis after 24 hrs by two fold serial dilution method
# Assay type: functional
# Conditions: not given
row,Compound,MIC80
1,Clc1cccc(Cn2c(Cn3cnc4c(N5CCOCC5)ncnc43)nc3ccccc32)c1,128 µg/mL
2,Cc1nc2cc([N+](=O)[O-])ccc2n1CCn1cnc2c(N3CCOCC3)ncnc21,64 µg/mL
3,c1nc(N2CCOCC2)c2nc[nH]c2n1,256 µg/mL
4,CCCCCCn1c(Cn2cnc3c(N4CCCC4)ncnc32)nc2ccccc21,128 µg/mL
5,CC(=O)c1nc2ccccc2n1CCn1cnc2c(N3CCOCC3)ncnc21,256 µg/mL
6,c1ccc2c(c1)ncn2CCn1cnc2c(N3CCOCC3)ncnc21,256 µg/mL

# Test system: Klebsiella pneumoniae
# Test: Antibacterial activity against Klebsiella pneumoniae after 24 hrs by two fold serial dilution method
# Assay type: functional
# Conditions: not given
row,Compound,MIC
1,Clc1cccc(Cn2c(Cn3cnc4c(N5CCOCC5)ncnc43)nc3ccccc32)c1,128 µg/mL
2,Cc1nc2cc([N+](=O)[O-])ccc2n1CCn1cnc2c(N3CCOCC3)ncnc21,128 µg/mL
3,c1nc(N2CCOCC2)c2nc[nH]c2n1,128 µg/mL
4,CCCCCCn1c(Cn2cnc3c(N4CCCC4)ncnc32)nc2ccccc21,128 µg/mL
5,CC(=O)c1nc2ccccc2n1CCn1cnc2c(N3CCOCC3)ncnc21,32 µg/mL
6,c1ccc2c(c1)ncn2CCn1cnc2c(N3CCOCC3)ncnc21,256 µg/mL

# Test system: Candida albicans
# Test: Antifungal activity against Candida albicans ATCC 90023 after 24 hrs by two fold serial dilution method
# Assay type: functional
# Conditions: ATCC 90023, 24 h
row,Compound,MIC80
1,Clc1cccc(Cn2c(Cn3cnc4c(N5CCOCC5)ncnc43)nc3ccccc32)c1,128 µg/mL
2,Cc1nc2cc([N+](=O)[O-])ccc2n1CCn1cnc2c(N3CCOCC3)ncnc21,256 µg/mL
3,c1nc(N2CCOCC2)c2nc[nH]c2n1,256 µg/mL
4,CCCCCCn1c(Cn2cnc3c(N4CCCC4)ncnc32)nc2ccccc21,32 µg/mL
5,CC(=O)c1nc2ccccc2n1CCn1cnc2c(N3CCOCC3)ncnc21,128 µg/mL
6,c1ccc2c(c1)ncn2CCn1cnc2c(N3CCOCC3)ncnc21,128 µg/mL

# Test system: Escherichia coli
# Test: Antibacterial activity against Escherichia coli ATCC 25922 after 24 hrs by two fold serial dilution method
# Assay type: functional
# Conditions: ATCC 25922, 24 h
row,Compound,MIC
1,Clc1cccc(Cn2c(Cn3cnc4c(N5CCOCC5)ncnc43)nc3ccccc32)c1,256 µg/mL
2,Cc1nc2cc([N+](=O)[O-])ccc2n1CCn1cnc2c(N3CCOCC3)ncnc21,16 µg/mL
3,c1nc(N2CCOCC2)c2nc[nH]c2n1,256 µg/mL
4,CCCCCCn1c(Cn2cnc3c(N4CCCC4)ncnc32)nc2ccccc21,16 µg/mL
5,CC(=O)c1nc2ccccc2n1CCn1cnc2c(N3CCOCC3)ncnc21,128 µg/mL
6,c1ccc2c(c1)ncn2CCn1cnc2c(N3CCOCC3)ncnc21,128 µg/mL

# Test system: Enterococcus faecalis
# Test: Antibacterial activity against Enterococcus faecalis after 24 hrs by two fold serial dilution method
# Assay type: functional
# Conditions: not given
row,Compound,MIC
1,Clc1cccc(Cn2c(Cn3cnc4c(N5CCOCC5)ncnc43)nc3ccccc32)c1,128 µg/mL
2,Cc1nc2cc([N+](=O)[O-])ccc2n1CCn1cnc2c(N3CCOCC3)ncnc21,128 µg/mL
3,c1nc(N2CCOCC2)c2nc[nH]c2n1,128 µg/mL
4,CCCCCCn1c(Cn2cnc3c(N4CCCC4)ncnc32)nc2ccccc21,256 µg/mL
5,CC(=O)c1nc2ccccc2n1CCn1cnc2c(N3CCOCC3)ncnc21,64 µg/mL
6,c1ccc2c(c1)ncn2CCn1cnc2c(N3CCOCC3)ncnc21,128 µg/mL

# Test system: Acinetobacter baumannii
# Test: Antibacterial activity against Acinetobacter baumannii after 24 hrs by two fold serial dilution method
# Assay type: functional
# Conditions: not given
row,Compound,MIC
1,Clc1cccc(Cn2c(Cn3cnc4c(N5CCOCC5)ncnc43)nc3ccccc32)c1,256 µg/mL
2,Cc1nc2cc([N+](=O)[O-])ccc2n1CCn1cnc2c(N3CCOCC3)ncnc21,32 µg/mL
3,c1nc(N2CCOCC2)c2nc[nH]c2n1,256 µg/mL
4,CCCCCCn1c(Cn2cnc3c(N4CCCC4)ncnc32)nc2ccccc21,64 µg/mL
5,CC(=O)c1nc2ccccc2n1CCn1cnc2c(N3CCOCC3)ncnc21,64 µg/mL
6,c1ccc2c(c1)ncn2CCn1cnc2c(N3CCOCC3)ncnc21,256 µg/mL

# Test system: Staphylococcus aureus
# Test: Antibacterial activity against Staphylococcus aureus ATCC 29213 after 24 hrs by two fold serial dilution method
# Assay type: functional
# Conditions: ATCC 29213, 24 h
row,Compound,MIC
1,Clc1cccc(Cn2c(Cn3cnc4c(N5CCOCC5)ncnc43)nc3ccccc32)c1,128 µg/mL
2,Cc1nc2cc([N+](=O)[O-])ccc2n1CCn1cnc2c(N3CCOCC3)ncnc21,64 µg/mL
3,c1nc(N2CCOCC2)c2nc[nH]c2n1,512 µg/mL
4,CCCCCCn1c(Cn2cnc3c(N4CCCC4)ncnc32)nc2ccccc21,512 µg/mL
5,CC(=O)c1nc2ccccc2n1CCn1cnc2c(N3CCOCC3)ncnc21,128 µg/mL
6,c1ccc2c(c1)ncn2CCn1cnc2c(N3CCOCC3)ncnc21,256 µg/mL

# Test system: Candida albicans
# Test: Antifungal activity against Candida albicans after 24 hrs by two fold serial dilution method
# Assay type: functional
# Conditions: not given
row,Compound,MIC80
1,Clc1cccc(Cn2c(Cn3cnc4c(N5CCOCC5)ncnc43)nc3ccccc32)c1,512 µg/mL
2,Cc1nc2cc([N+](=O)[O-])ccc2n1CCn1cnc2c(N3CCOCC3)ncnc21,512 µg/mL
3,c1nc(N2CCOCC2)c2nc[nH]c2n1,256 µg/mL
4,CCCCCCn1c(Cn2cnc3c(N4CCCC4)ncnc32)nc2ccccc21,64 µg/mL
5,CC(=O)c1nc2ccccc2n1CCn1cnc2c(N3CCOCC3)ncnc21,256 µg/mL
6,c1ccc2c(c1)ncn2CCn1cnc2c(N3CCOCC3)ncnc21,256 µg/mL

# Test system: Staphylococcus aureus
# Test: Antibacterial activity against methicillin-resistant Staphylococcus aureus N315 after 24 hrs by two fold serial dilution method
# Assay type: functional
# Conditions: N315, 24 h
row,Compound,MIC
1,Clc1cccc(Cn2c(Cn3cnc4c(N5CCOCC5)ncnc43)nc3ccccc32)c1,512 µg/mL
2,Cc1nc2cc([N+](=O)[O-])ccc2n1CCn1cnc2c(N3CCOCC3)ncnc21,256 µg/mL
3,c1nc(N2CCOCC2)c2nc[nH]c2n1,512 µg/mL
4,CCCCCCn1c(Cn2cnc3c(N4CCCC4)ncnc32)nc2ccccc21,64 µg/mL
5,CC(=O)c1nc2ccccc2n1CCn1cnc2c(N3CCOCC3)ncnc21,256 µg/mL
6,c1ccc2c(c1)ncn2CCn1cnc2c(N3CCOCC3)ncnc21,256 µg/mL

# Test system: Pseudomonas aeruginosa
# Test: Antibacterial activity against Pseudomonas aeruginosa ATCC 27853 after 24 hrs by two fold serial dilution method
# Assay type: functional
# Conditions: ATCC 27853, 24 h
row,Compound,MIC
1,Clc1cccc(Cn2c(Cn3cnc4c(N5CCOCC5)ncnc43)nc3ccccc32)c1,256 µg/mL
2,Cc1nc2cc([N+](=O)[O-])ccc2n1CCn1cnc2c(N3CCOCC3)ncnc21,64 µg/mL
3,c1nc(N2CCOCC2)c2nc[nH]c2n1,256 µg/mL
4,CCCCCCn1c(Cn2cnc3c(N4CCCC4)ncnc32)nc2ccccc21,256 µg/mL
5,CC(=O)c1nc2ccccc2n1CCn1cnc2c(N3CCOCC3)ncnc21,32 µg/mL
6,c1ccc2c(c1)ncn2CCn1cnc2c(N3CCOCC3)ncnc21,256 µg/mL

# Test system: Staphylococcus aureus
# Test: Antibacterial activity against Staphylococcus aureus after 24 hrs by two fold serial dilution method
# Assay type: functional
# Conditions: not given
row,Compound,MIC
1,Clc1cccc(Cn2c(Cn3cnc4c(N5CCOCC5)ncnc43)nc3ccccc32)c1,256 µg/mL
2,Cc1nc2cc([N+](=O)[O-])ccc2n1CCn1cnc2c(N3CCOCC3)ncnc21,16 µg/mL
3,c1nc(N2CCOCC2)c2nc[nH]c2n1,256 µg/mL
4,CCCCCCn1c(Cn2cnc3c(N4CCCC4)ncnc32)nc2ccccc21,32 µg/mL
5,CC(=O)c1nc2ccccc2n1CCn1cnc2c(N3CCOCC3)ncnc21,32 µg/mL
6,c1ccc2c(c1)ncn2CCn1cnc2c(N3CCOCC3)ncnc21,256 µg/mL

# Test system: Staphylococcus aureus
# Test: Antibacterial activity against Staphylococcus aureus ATCC 25923 after 24 hrs by two fold serial dilution method
# Assay type: functional
# Conditions: ATCC 25923, 24 h
row,Compound,MIC
1,Clc1cccc(Cn2c(Cn3cnc4c(N5CCOCC5)ncnc43)nc3ccccc32)c1,128 µg/mL
2,Cc1nc2cc([N+](=O)[O-])ccc2n1CCn1cnc2c(N3CCOCC3)ncnc21,128 µg/mL
3,c1nc(N2CCOCC2)c2nc[nH]c2n1,512 µg/mL
4,CCCCCCn1c(Cn2cnc3c(N4CCCC4)ncnc32)nc2ccccc21,64 µg/mL
5,CC(=O)c1nc2ccccc2n1CCn1cnc2c(N3CCOCC3)ncnc21,64 µg/mL
6,c1ccc2c(c1)ncn2CCn1cnc2c(N3CCOCC3)ncnc21,256 µg/mL

# Test system: Pseudomonas aeruginosa
# Test: Antibacterial activity against Pseudomonas aeruginosa after 24 hrs by two fold serial dilution method
# Assay type: functional
# Conditions: not given
row,Compound,MIC
1,Clc1cccc(Cn2c(Cn3cnc4c(N5CCOCC5)ncnc43)nc3ccccc32)c1,512 µg/mL
2,Cc1nc2cc([N+](=O)[O-])ccc2n1CCn1cnc2c(N3CCOCC3)ncnc21,64 µg/mL
3,c1nc(N2CCOCC2)c2nc[nH]c2n1,256 µg/mL
4,CCCCCCn1c(Cn2cnc3c(N4CCCC4)ncnc32)nc2ccccc21,128 µg/mL
5,CC(=O)c1nc2ccccc2n1CCn1cnc2c(N3CCOCC3)ncnc21,8 µg/mL
6,c1ccc2c(c1)ncn2CCn1cnc2c(N3CCOCC3)ncnc21,128 µg/mL

# Test system: Candida parapsilosis
# Test: Antifungal activity against Candida parapsilosis ATCC 22019 after 24 hrs by two fold serial dilution method
# Assay type: functional
# Conditions: ATCC 22019, 24 h
row,Compound,MIC80
1,Clc1cccc(Cn2c(Cn3cnc4c(N5CCOCC5)ncnc43)nc3ccccc32)c1,512 µg/mL
2,Cc1nc2cc([N+](=O)[O-])ccc2n1CCn1cnc2c(N3CCOCC3)ncnc21,256 µg/mL
3,c1nc(N2CCOCC2)c2nc[nH]c2n1,512 µg/mL
4,CCCCCCn1c(Cn2cnc3c(N4CCCC4)ncnc32)nc2ccccc21,32 µg/mL
5,CC(=O)c1nc2ccccc2n1CCn1cnc2c(N3CCOCC3)ncnc21,512 µg/mL
6,c1ccc2c(c1)ncn2CCn1cnc2c(N3CCOCC3)ncnc21,128 µg/mL

# Test system: Aspergillus fumigatus
# Test: Antifungal activity against Aspergillus fumigatus after 24 hrs by two fold serial dilution method
# Assay type: functional
# Conditions: not given
row,Compound,MIC80
1,Clc1cccc(Cn2c(Cn3cnc4c(N5CCOCC5)ncnc43)nc3ccccc32)c1,256 µg/mL
2,Cc1nc2cc([N+](=O)[O-])ccc2n1CCn1cnc2c(N3CCOCC3)ncnc21,128 µg/mL
3,c1nc(N2CCOCC2)c2nc[nH]c2n1,256 µg/mL
4,CCCCCCn1c(Cn2cnc3c(N4CCCC4)ncnc32)nc2ccccc21,128 µg/mL
5,CC(=O)c1nc2ccccc2n1CCn1cnc2c(N3CCOCC3)ncnc21,128 µg/mL
6,c1ccc2c(c1)ncn2CCn1cnc2c(N3CCOCC3)ncnc21,256 µg/mL
